Drawing on PubChem BioAssay AID651781 (The Scripps Research Institute Molecular Screening Center, 2012), this text covers IC50 for eight compounds.

SMILES strings stand for the structures. The source made the active and inactive calls.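 The calls were made as follows: active = IC50 at or below 10 µM; inactive = IC50 above 10 µM.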

The assay deals with GAL4 DBD-VP16 fusion transactivation (Human herpesvirus 1 VP16). The experiment in a line: nonselective repression of VP16-driven luciferase – cell-based, luminescence, dose response, powder samples, counter-screen for SRC3 inhibitor project, late-stage follow-up (AID 651781). The following applies: HEK293 GAL4-VP16 UAS luciferase reporter.
One may read the IC50 as the concentration that inhibits the measured activity by half. As for `CC(C)(C)c1ccc(-c2noc(CCC(=O)Nc3cccnc3)n2)cc1`, the IC50 is 9.65 µM.
Turning to `OCCN1CCN(C(=S)c2ccc(-c3ccccc3)cc2)CC1`, the IC50 result is “inactive”.
As for `O=C(COC(=O)c1ccc[nH]c1=O)Nc1ccc(N2CCCCC2)cc1`, the figure is > 35.9 µM (inactive).
For `CN1C(=O)C2(C(C#N)=C(N)N(c3cc(Cl)cc(Cl)c3)C3=C2C(=O)CC(C)(C)C3)c2ccccc21` (stereo not drawn), the IC50 entry is “inactive”.
Take `O=C(Nc1ccccc1Oc1ccccc1)c1cc([N+](=O)[O-])ccc1Cl`: the IC50 entry is “inactive”.
As for `CCCNC(=O)c1nnsc1S(=O)(=O)c1ccc(Cl)cc1`, the figure is 6.04 µM; as for `Cc1ccc(OCC(=O)c2cc(C)n(-c3ccccc3)c2C)c([N+](=O)[O-])n1`, “inactive”; as for `CN1C(=O)C2(C(C#N)=C(N)N(c3cc(Cl)cc(Cl)c3)C3=C2C(=O)CCC3)c2ccccc21` (stereo not drawn), “inactive”.
